For one assay, the system named is Panc1 cells. Briefly: MTT assay, compounds related to LD030 on Panc1 cells. The class given is cell-based, human. Particulars: 48 hours; for inhibition at 0.1 µM / inhibition at 1 µM / inhibition at 10 µM / inhibition at 100 µM: Homo sapiens, PANC-1, read-out: Effects on Panc1 Cells (inhibitory percentage). Here is the method: (§1) MTT assay was used to detect cell viability after being treated with different compounds of the present invention related to LD030. The cell lines treated were on non-small lung cancer cell line A549, HepG2 cells and Panc1 cells.
(§2) MTT preservation solution preparation: 0.5 g MTT was dissolved in 100 ml of phosphate buffer solution (PBS), and bacteria contaminates were removed with a 0.22 μm membrane filter to obtain 0.5% MTT solution, which was stored in the dark at −20° C.
(§3) MTT working solution preparation: MTT preservation solution was diluted 10 times with sterile PBS to obtain MTT working solution.
(§4) 1640 complete medium preparation: 1640 base medium was added with an amount of fetal bovine serum (FBS) so that the medium contains 10% FBS by volume. Then an amount of double-antibody (i.e., penicillin and streptomycin) was added to make final concentration of penicillin at 100 units/ml and streptomycin at 100 ug/ml.
(§5) The experimental procedure is as follows:
(§6) (1) Take trypsin digested logarithmic phase cells and adjust the concentration of the cell suspension to 6×10^4 cell/ml, and then add 100 ul suspension of the cells under the test to each well on a 96-well plate and adjusted to a density of 6000 cells/well. The edge orifice is filled with sterile PBS.
(§7) (2) Placed the 96-well plate into a 37° C. incubator with 5% CO2 and incubate it overnight.
(§8) (3) Dissolve the test compounds in 200 ul DMSO to get a 5 mg/ml solution and dilute it to get 100 uM, 10 uM, 1 uM and 0.1 uM solutions. Add 100 ul of a solution to each of three repeat wells. Set a control well which has cells but without the compound of the present invention and a blank cell which contains no cells.
(§9) (4) Put the 96-well plate into a 37° C. incubator with 5% CO2 and incubate it for 48 hours. Examine the cells daily under a microscope.
(§10) (5) After being cultured for 48 hours, centrifuge and discard the culture liquid. Add 100 ul MTT working solution to each well, and continue incubating for 4 h.
(§11) (6) Terminate the culture, and carefully remove the culture medium. Then add 100 ul DMSO to each well and shake it at a low speed in a shaker for 10 min to make all crystals fully dissolved. The absorbance value of each well was measured by an enzyme-linked immunosorbent detector at the OD570 nm, and the inhibition rate of the different compounds with different concentration on cell growth can be obtained.

The subject of the next assay is HepG2 cells. Put plainly: MTT assay, compounds related to LD030 on HepG2 cells. The class given is cell-based, human. The following applies: 48 hours; for inhibition at 0.1 µM / inhibition at 1 µM / inhibition at 10 µM / inhibition at 100 µM: Homo sapiens, HepG2, read-out: Effects on HepG2 Cells (inhibitory percentage). Here is the method: as §1, §2, §3, §4, §5, §6, §7, §8, §9, §10, §11
Background: Tetrazolium dyes change colour on reduction, which living cells bring about.

Assay [1] concerns non-small lung cancer cell line A549. Put plainly: MTT assay, compounds related to LD030 on A549 cells. In kind it is cell-based. Particulars: for Effects on A549 Cells (inhibitory percentage) / inhibition at 0.1 µM / inhibition at 1 µM / inhibition at 10 µM / inhibition at 100 µM: 48 hours; for inhibition at 0.1 µM / inhibition at 1 µM / inhibition at 10 µM / inhibition at 100 µM: Homo sapiens, A549, read-out: Effects on A549 Cells (inhibitory percentage). Here is the method: as §1, §2, §3, §4, §5, §6, §7, §8, §9, §10, §11

`CC(=O)OC(CCC(C)C1CC[C@@]2(C)C34CC[C@H]5C(C)(C)[C@@H](OC(C)=O)CC[C@]5(C)C3(CC[C@]12C)O4)C(C)(C)OC(C)=O` (stereo partly drawn) [LD023]: the “Effects on Panc1 Cells (inhibitory percentage)” value in the assay with Panc1 cells (0.1 μM) is −5.92%; in the assay on Panc1 cells (1 μM) it was −1.12%; in the assay with Panc1 cells (10 μM), −2.56%; in the assay with Panc1 cells (100 μM) it was 25.26%. Besides, the “Effects on HepG2 Cells (inhibitory percentage)” value in the assay on HepG2 cells (0.1 μM) came out at 26.53%; with HepG2 cells (1 μM), 27.64%; in the assay on HepG2 cells (10 μM), 19.13%; in the assay on HepG2 cells (100 μM) it was 23.00%. Besides, the “Effects on A549 Cells (inhibitory percentage)” value in assay [1] (0.1 μM) came to 8.01%; in assay [1] (1 μM) it was 8.30%; in assay [1] (10 μM), 6.11%; in assay [1] (100 μM), 12.70%.
In the case of `CC(=O)O[C@H]1CC[C@@]2(C)[C@@H](CCC34OC32CC[C@]2(C)C(C(C)CCC(O)C(C)(C)O)CC[C@@]42C)C1(C)C` (stereo partly drawn) [LD027], the results for the inhibition at 0.1 µM (with Panc1 cells (0.1 μM); in assay [1] (0.1 μM)) were 2.21% and -1.4%, respectively. Moreover, the inhibition at 1 µM in the assay with Panc1 cells (1 μM) was 10.1%; in assay [1] (1 μM), -4.98%. Moreover, the inhibition at 10 µM in the assay with Panc1 cells (10 μM) is 16.7%; in assay [1] (10 μM), 12.9%. Also, the inhibition at 100 µM in the assay on Panc1 cells (100 μM) worked out at 28.7%; in assay [1] (100 μM), 58.6%.
Regarding `CC(C)=CCC[C@@H](C)[C@H]1CC[C@@]2(C)C3=C(CC[C@]12C)[C@@]1(C)CCC(=O)C(C)(C)[C@@H]1CC3` [LD 012], the “Effects on Panc1 Cells (inhibitory percentage)” value with Panc1 cells (0.1 μM) is listed as 5.68%; in the assay with Panc1 cells (1 μM), 5.68%; with Panc1 cells (10 μM), 10.20%; in the assay with Panc1 cells (100 μM), 39.54%. Besides, the “Effects on HepG2 Cells (inhibitory percentage)” value is recorded as 10.53% in the assay on HepG2 cells (0.1 μM), −15.82% with HepG2 cells (1 μM), −1.79% in the assay with HepG2 cells (10 μM) and 47.72% in the assay on HepG2 cells (100 μM). Also, the “Effects on A549 Cells (inhibitory percentage)” value in assay [1] (0.1 μM) stood at 1.31%; in assay [1] (1 μM), 28.04%; in assay [1] (10 μM), 39.34%; in assay [1] (100 μM), 91.76%. Moreover, in assay [1] (concentration not given), the “inhibition rate on A549” value is given as “more than 90%”.
Turning to `CC(=O)OC(CCC(C)C1CC[C@@]2(C)C3=C(CC[C@]12C)[C@@]1(C)CCC(=O)C(C)(C)[C@@H]1CC3)C(C)(C)OC(C)=O` (stereo partly drawn) [LD 014], the inhibition at 0.1 µM with Panc1 cells (0.1 μM) is -5.26%; in the assay on HepG2 cells (0.1 μM), 0.64%; in assay [1] (0.1 μM), 21.3%. Further, the figures for the inhibition at 1 µM (with Panc1 cells (1 μM); in the assay on HepG2 cells (1 μM); in assay [1] (1 μM)) were -3.05%, -20.7% and 9.46%, respectively. In addition, the figures for the inhibition at 10 µM (with Panc1 cells (10 μM); in the assay on HepG2 cells (10 μM); in assay [1] (10 μM)) were 3.89%, 2.93% and 3.02%, respectively. For the same compound, the inhibition at 100 µM with Panc1 cells (100 μM) is 24.1%; with HepG2 cells (100 μM) it was 61.4%; in assay [1] (100 μM), 34.6%.
Take `CC(=O)O[C@H]1CC[C@]2(C)C3=C(CC[C@H]2C1(C)C)[C@]1(C)CCC(C(C)CCC(O)C(C)(C)O)[C@@]1(C)CC3` (stereo partly drawn) [LD 021]: the inhibition at 0.1 µM with Panc1 cells (0.1 μM) is -12.6%; with HepG2 cells (0.1 μM), 12.7%; in assay [1] (0.1 μM), 3.13%. Besides, the values for the inhibition at 1 µM (in the assay with Panc1 cells (1 μM); in the assay with HepG2 cells (1 μM); in assay [1] (1 μM)) were -4.96%, 13.1% and 1.31%, respectively. Besides, the results for the inhibition at 10 µM (in the assay on Panc1 cells (10 μM); in the assay on HepG2 cells (10 μM); in assay [1] (10 μM)) were 2.16%, 12.7% and 1.53%, respectively. Further, the values for the inhibition at 100 µM (with Panc1 cells (100 μM); in the assay with HepG2 cells (100 μM); in assay [1] (100 μM)) were 48.8%, 24.6% and 45.5%, respectively.
Regarding `CC(=O)OC(CCC(C)C1CC[C@@]2(C)C3=C(CC[C@]12C)[C@@]1(C)CC[C@H](OC(C)=O)C(C)(C)[C@@H]1CC3)C(C)(C)OC(C)=O` (stereo partly drawn) [LD 022], the “Effects on Panc1 Cells (inhibitory percentage)” value is given as −6.95% with Panc1 cells (0.1 μM), −5.28% with Panc1 cells (1 μM), −2.48% in the assay on Panc1 cells (10 μM) and −6.24% in the assay on Panc1 cells (100 μM). For the same compound, the “Effects on HepG2 Cells (inhibitory percentage)” value in the assay on HepG2 cells (0.1 μM) is listed as 20.67%; with HepG2 cells (1 μM) it was 31.18%; with HepG2 cells (10 μM), 24.88%; in the assay on HepG2 cells (100 μM), 24.54%. For the same compound, the “Effects on A549 Cells (inhibitory percentage)” value in assay [1] (0.1 μM) amounted to 4.73%; in assay [1] (1 μM), 8.99%; in assay [1] (10 μM), 6.92%; in assay [1] (100 μM), 35.89%.
Regarding `CC(CCC(O)C(C)(C)O)C1CC[C@@]2(C)C34CC[C@H]5C(C)(C)[C@@H](O)CC[C@]5(C)C3(CC[C@]12C)O4` (stereo partly drawn) [LD 024], the inhibition at 0.1 µM in the assay on Panc1 cells (0.1 μM) was -7.19%; in the assay on HepG2 cells (0.1 μM) it was 22%; in assay [1] (0.1 μM), 1.38%. Also, the inhibition at 1 µM in the assay with Panc1 cells (1 μM) was -8.39%; in the assay on HepG2 cells (1 μM) it was 14.3%; in assay [1] (1 μM), 6.04%. Moreover, the figures for the inhibition at 10 µM (with Panc1 cells (10 μM); with HepG2 cells (10 μM); in assay [1] (10 μM)) were -13%, 5.86% and -0.22%, respectively. In addition, the results for the inhibition at 100 µM (in the assay on Panc1 cells (100 μM); in the assay with HepG2 cells (100 μM); in assay [1] (100 μM)) were 6.95%, 2.1% and 34.6%, respectively.
On to `CC(CCC(=O)C(C)(C)O)C1CC[C@@]2(C)C34CC[C@H]5C(C)(C)C(=O)CC[C@]5(C)C3(CC[C@]12C)O4` (stereo partly drawn) [LD 025], for which the inhibition at 0.1 µM was -16.5% in the assay with Panc1 cells (0.1 μM), -1.15% in the assay with HepG2 cells (0.1 μM) and 25.2% in assay [1] (0.1 μM). Besides, the inhibition at 1 µM was -12.8% in the assay with Panc1 cells (1 μM), -19.1% with HepG2 cells (1 μM) and 1.71% in assay [1] (1 μM). Besides, the inhibition at 10 µM with Panc1 cells (10 μM) was -9.57%; with HepG2 cells (10 μM), -1.79%; in assay [1] (10 μM), 0.51%. In addition, the inhibition at 100 µM in the assay with Panc1 cells (100 μM) was -16%; in the assay on HepG2 cells (100 μM), 20.5%; in assay [1] (100 μM), 16.9%.
In the case of `CC(=O)O[C@H]1CC[C@]2(C)C3=C(CC[C@H]2C1(C)C)[C@]1(C)CCC(C(C)CCC2OC2(C)C)[C@@]1(C)CC3` (stereo partly drawn) [LD 026-1], the inhibition at 0.1 µM with Panc1 cells (0.1 μM) is -2.84%; with HepG2 cells (0.1 μM), -3.32%; in assay [1] (0.1 μM), 21.8%. For the same compound, the inhibition at 1 µM is 9.46% in the assay with Panc1 cells (1 μM), -0.13% with HepG2 cells (1 μM) and 6.66% in assay [1] (1 μM). The inhibition at 10 µM with Panc1 cells (10 μM) is 8.83%; with HepG2 cells (10 μM) it was 12.7%; in assay [1] (10 μM), 8.3%. Further, the inhibition at 100 µM in the assay on Panc1 cells (100 μM) worked out at 34.4%; with HepG2 cells (100 μM), 58.1%; in assay [1] (100 μM) it was 39.8%.
On to `CC(=O)O[C@H]1CC[C@@]2(C)[C@@H](CCC34OC32CC[C@]2(C)C(C(C)CCC3OC3(C)C)CC[C@@]42C)C1(C)C` (stereo partly drawn) [LD 026-2], for which the results for the inhibition at 0.1 µM (in the assay on Panc1 cells (0.1 μM); in the assay on HepG2 cells (0.1 μM); in assay [1] (0.1 μM)) were 8.79%, 20.3% and 2.51%, respectively. In addition, the inhibition at 1 µM with Panc1 cells (1 μM) was 7.59%; in the assay with HepG2 cells (1 μM), 32.8%; in assay [1] (1 μM), 6.88%. For the same compound, the inhibition at 10 µM in the assay on Panc1 cells (10 μM) is 14.6%; in the assay with HepG2 cells (10 μM), 20.8%; in assay [1] (10 μM) it was -2.33%. The inhibition at 100 µM with Panc1 cells (100 μM) came out at 21.5%; in the assay with HepG2 cells (100 μM), 33.9%; in assay [1] (100 μM) it was 33%.

(Values after US9522935B2, “Commands and method of treating cancer via RHO pathway” (priority 2013, dated 2016).)
